Measurements published in patent publication US20220009920A1 (GB005, Inc., priority 2020, published 2022).

Key:
Assay in all cases: Large panel kinase profiling
Type in all cases: biochemical
Conditions in all cases: 1 μM test article, 1 mM ATP
[1] = biological target: T1, MAP4K4/HGK (Homo sapiens, UniProt O95819)
T1 construct: AssayQuant Technologies, Inc. (service provider)
How it was run: (§1)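 Profiling across the panel relied on the PhosphoSens CSox-Sensor format. A compound concentration of 1 μM and an ATP level of 1 mM were used throughout.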

[2] = biological target: T2, SGK2 (Homo sapiens, UniProt Q9HBY8)
T2 construct: AssayQuant Technologies, Inc. (contract assay)
T2 sequence (Q9HBY8 1-367): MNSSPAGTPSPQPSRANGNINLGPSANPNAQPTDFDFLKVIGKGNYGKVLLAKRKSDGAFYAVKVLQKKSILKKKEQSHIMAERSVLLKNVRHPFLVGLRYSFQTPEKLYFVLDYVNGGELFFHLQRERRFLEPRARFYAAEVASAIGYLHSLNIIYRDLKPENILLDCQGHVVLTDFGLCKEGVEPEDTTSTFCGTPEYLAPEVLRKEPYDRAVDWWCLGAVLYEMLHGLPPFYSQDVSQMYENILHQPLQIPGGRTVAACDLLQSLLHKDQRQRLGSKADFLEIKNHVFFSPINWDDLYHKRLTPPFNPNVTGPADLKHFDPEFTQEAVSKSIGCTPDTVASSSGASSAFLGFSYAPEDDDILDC
How it was run: as §1

[3] = biological target: LTK (Homo sapiens, UniProt P29376)
How it was run: as §1

[4] = biological target: T3, TXK (Homo sapiens, UniProt P42681)
T3 construct: AssayQuant Technologies, Inc. (contract laboratory that ran the panel)
T3 sequence (P42681 1-527): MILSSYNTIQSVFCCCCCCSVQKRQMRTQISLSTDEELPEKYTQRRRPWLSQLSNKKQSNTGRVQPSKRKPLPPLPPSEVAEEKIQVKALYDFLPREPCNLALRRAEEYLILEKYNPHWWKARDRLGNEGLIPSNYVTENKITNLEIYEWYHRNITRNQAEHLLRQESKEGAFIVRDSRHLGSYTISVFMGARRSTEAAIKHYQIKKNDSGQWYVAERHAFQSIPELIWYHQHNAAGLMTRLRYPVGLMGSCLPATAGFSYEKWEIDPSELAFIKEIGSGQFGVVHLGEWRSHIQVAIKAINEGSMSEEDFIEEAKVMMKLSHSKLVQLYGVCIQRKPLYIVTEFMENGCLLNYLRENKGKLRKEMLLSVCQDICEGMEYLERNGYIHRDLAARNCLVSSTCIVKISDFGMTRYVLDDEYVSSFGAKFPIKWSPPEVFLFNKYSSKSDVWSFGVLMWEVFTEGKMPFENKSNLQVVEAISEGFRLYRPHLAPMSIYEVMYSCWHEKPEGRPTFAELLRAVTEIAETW
How it was run: as §1

[5] = biological target: T4, DAPK2 (Homo sapiens, UniProt Q9UIK4)
T4 construct: AssayQuant Technologies, Inc. (service laboratory)
How it was run: as §1

[6] = biological target: RAF1 (Homo sapiens, UniProt P04049)
How it was run: as §1

[7] = biological target: PRKAA2/AMPK221 (Homo sapiens, UniProt P54646)
How it was run: as §1

[8] = biological target: T5, EPHA1 (Homo sapiens, UniProt P21709)
T5 sequence (P21709 26-976): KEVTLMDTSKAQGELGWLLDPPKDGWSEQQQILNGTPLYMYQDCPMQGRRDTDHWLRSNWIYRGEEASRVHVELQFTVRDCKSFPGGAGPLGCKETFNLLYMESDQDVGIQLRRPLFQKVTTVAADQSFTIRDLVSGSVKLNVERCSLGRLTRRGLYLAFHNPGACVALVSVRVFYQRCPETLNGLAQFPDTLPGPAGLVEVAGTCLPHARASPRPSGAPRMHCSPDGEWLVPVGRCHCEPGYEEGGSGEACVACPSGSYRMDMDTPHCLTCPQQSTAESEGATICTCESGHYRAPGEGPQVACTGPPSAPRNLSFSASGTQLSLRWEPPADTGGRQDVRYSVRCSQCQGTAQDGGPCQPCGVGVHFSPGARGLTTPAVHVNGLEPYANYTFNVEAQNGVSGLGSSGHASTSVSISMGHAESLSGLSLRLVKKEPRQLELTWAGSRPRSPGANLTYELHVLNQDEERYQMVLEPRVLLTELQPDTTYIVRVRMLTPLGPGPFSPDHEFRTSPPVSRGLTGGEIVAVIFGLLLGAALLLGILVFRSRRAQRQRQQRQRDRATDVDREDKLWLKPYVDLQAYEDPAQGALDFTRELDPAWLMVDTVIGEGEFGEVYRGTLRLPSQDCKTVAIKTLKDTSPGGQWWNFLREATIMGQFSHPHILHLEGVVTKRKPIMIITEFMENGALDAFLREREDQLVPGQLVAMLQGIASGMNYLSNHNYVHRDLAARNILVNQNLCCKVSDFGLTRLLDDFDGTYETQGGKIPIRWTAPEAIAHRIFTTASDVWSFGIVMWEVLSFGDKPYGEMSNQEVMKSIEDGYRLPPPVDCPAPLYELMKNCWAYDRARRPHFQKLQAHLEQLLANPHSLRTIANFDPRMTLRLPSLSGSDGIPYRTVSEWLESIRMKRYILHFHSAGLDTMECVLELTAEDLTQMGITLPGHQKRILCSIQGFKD
How it was run: as §1

[9] = biological target: T6, MAP3K9 (Homo sapiens, UniProt P80192)
T6 construct: AssayQuant Technologies, Inc. (service provider)
How it was run: as §1

[10] = biological target: T7, MAPK8/JNK1 (Homo sapiens, UniProt P45983)
T7 construct: AssayQuant Technologies, Inc. (service provider)
How it was run: as §1

[11] = biological target: PRKAA1/AMPK121 (Homo sapiens, UniProt Q13131)
How it was run: as §1

[12] = biological target: RIPK2 (Homo sapiens, UniProt O43353)
How it was run: as §1

T4 sequence (Q9UIK4 whole entry, species assumed): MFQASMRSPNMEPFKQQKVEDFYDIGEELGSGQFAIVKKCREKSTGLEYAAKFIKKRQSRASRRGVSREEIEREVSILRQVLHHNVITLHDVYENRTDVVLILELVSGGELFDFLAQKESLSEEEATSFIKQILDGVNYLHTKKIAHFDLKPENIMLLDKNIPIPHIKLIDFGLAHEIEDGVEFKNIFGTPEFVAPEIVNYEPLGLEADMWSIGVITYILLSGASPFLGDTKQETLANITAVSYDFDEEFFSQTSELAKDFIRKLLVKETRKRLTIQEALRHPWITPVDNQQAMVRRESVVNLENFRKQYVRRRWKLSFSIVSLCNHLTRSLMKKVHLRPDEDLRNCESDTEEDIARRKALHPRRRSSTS
Sequence of RIPK2 (O43353 whole entry, species assumed): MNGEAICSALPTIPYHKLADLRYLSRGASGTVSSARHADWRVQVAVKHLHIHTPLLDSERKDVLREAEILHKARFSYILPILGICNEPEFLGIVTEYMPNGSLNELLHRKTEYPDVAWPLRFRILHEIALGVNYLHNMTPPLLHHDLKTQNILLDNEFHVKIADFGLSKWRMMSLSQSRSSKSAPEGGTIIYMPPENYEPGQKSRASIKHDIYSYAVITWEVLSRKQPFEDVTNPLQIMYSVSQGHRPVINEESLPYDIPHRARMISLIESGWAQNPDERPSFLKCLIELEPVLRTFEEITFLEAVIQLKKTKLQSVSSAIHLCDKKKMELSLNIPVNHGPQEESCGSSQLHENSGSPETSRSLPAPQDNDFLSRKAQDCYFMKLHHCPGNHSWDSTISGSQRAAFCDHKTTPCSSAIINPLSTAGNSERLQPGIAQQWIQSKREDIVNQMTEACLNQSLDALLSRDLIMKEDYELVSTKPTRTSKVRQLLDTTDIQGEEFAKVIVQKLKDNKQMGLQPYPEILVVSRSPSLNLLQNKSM
Sequence of RAF1 (P04049 whole entry, species assumed): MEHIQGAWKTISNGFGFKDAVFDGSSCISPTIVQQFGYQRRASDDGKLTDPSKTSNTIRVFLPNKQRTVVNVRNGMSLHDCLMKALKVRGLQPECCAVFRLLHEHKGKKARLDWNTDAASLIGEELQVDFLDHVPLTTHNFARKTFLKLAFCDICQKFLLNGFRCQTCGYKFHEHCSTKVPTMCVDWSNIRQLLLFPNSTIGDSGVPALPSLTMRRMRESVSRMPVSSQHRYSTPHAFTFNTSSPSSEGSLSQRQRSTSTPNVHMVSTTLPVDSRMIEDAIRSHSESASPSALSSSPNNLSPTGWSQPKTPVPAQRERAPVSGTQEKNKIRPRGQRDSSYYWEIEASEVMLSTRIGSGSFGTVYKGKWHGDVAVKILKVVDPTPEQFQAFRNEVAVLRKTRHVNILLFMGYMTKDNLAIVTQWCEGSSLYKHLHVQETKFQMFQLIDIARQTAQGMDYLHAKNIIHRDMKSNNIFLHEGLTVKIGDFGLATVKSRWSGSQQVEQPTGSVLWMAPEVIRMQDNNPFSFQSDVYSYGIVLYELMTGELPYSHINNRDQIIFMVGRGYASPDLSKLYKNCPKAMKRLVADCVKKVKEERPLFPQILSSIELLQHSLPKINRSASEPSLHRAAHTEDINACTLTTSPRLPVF
Sequence of PRKAA2/AMPK221 (P54646 whole entry, species assumed): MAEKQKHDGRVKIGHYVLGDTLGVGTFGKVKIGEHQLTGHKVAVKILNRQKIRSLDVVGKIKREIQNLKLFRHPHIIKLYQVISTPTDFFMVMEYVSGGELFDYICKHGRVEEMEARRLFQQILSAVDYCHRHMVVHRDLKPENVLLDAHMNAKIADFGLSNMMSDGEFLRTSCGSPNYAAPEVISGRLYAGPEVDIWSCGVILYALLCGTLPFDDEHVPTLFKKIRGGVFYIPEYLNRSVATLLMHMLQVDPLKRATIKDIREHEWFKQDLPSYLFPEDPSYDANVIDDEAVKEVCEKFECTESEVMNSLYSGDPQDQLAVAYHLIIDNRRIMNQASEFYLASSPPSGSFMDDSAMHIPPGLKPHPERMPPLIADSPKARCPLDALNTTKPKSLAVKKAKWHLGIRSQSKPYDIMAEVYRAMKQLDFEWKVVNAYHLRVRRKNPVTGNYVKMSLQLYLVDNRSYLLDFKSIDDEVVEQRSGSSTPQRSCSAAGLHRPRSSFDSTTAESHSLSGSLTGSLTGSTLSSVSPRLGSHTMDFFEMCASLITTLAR
Sequence of PRKAA2/AMPK221 (O43741 whole entry partner, species assumed): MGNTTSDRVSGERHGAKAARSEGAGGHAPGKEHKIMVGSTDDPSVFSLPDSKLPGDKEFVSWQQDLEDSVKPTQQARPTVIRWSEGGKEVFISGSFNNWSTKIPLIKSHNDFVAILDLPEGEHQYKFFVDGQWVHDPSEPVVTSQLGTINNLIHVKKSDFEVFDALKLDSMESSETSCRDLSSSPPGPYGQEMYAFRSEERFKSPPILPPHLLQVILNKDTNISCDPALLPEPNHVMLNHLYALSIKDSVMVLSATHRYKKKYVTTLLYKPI
Sequence of PRKAA2/AMPK221 (P54619 whole entry partner, species assumed): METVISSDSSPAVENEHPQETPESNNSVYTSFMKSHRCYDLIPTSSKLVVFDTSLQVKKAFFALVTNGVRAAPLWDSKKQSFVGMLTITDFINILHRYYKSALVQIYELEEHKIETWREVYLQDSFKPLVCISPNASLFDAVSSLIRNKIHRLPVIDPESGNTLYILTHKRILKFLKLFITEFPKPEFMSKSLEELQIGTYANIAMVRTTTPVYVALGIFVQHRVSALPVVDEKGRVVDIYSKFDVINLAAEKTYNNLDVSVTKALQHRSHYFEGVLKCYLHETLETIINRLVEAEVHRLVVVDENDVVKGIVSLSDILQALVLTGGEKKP
Sequence of LTK (P29376 17-864, species assumed): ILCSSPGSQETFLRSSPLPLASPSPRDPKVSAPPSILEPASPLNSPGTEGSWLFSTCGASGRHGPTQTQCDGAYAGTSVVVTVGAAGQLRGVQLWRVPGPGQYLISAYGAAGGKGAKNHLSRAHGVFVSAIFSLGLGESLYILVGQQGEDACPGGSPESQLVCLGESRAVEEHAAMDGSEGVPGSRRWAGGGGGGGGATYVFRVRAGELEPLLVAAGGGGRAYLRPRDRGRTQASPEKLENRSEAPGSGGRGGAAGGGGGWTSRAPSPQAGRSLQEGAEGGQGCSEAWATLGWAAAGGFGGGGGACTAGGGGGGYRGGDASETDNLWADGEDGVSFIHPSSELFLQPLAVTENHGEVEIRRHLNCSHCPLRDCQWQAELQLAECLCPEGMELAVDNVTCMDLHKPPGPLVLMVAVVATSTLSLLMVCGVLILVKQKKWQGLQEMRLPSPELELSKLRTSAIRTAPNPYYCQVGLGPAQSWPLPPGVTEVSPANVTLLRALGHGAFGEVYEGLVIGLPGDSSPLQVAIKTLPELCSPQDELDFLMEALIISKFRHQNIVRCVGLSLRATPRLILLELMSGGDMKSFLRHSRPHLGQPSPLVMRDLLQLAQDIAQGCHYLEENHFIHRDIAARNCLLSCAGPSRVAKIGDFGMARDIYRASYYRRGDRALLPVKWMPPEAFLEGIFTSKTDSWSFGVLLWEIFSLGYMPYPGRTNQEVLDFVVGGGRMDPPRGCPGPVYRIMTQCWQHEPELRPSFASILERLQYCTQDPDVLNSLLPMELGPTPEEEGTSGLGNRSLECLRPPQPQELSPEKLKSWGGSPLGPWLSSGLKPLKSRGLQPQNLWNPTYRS
T1 sequence (O95819 whole entry): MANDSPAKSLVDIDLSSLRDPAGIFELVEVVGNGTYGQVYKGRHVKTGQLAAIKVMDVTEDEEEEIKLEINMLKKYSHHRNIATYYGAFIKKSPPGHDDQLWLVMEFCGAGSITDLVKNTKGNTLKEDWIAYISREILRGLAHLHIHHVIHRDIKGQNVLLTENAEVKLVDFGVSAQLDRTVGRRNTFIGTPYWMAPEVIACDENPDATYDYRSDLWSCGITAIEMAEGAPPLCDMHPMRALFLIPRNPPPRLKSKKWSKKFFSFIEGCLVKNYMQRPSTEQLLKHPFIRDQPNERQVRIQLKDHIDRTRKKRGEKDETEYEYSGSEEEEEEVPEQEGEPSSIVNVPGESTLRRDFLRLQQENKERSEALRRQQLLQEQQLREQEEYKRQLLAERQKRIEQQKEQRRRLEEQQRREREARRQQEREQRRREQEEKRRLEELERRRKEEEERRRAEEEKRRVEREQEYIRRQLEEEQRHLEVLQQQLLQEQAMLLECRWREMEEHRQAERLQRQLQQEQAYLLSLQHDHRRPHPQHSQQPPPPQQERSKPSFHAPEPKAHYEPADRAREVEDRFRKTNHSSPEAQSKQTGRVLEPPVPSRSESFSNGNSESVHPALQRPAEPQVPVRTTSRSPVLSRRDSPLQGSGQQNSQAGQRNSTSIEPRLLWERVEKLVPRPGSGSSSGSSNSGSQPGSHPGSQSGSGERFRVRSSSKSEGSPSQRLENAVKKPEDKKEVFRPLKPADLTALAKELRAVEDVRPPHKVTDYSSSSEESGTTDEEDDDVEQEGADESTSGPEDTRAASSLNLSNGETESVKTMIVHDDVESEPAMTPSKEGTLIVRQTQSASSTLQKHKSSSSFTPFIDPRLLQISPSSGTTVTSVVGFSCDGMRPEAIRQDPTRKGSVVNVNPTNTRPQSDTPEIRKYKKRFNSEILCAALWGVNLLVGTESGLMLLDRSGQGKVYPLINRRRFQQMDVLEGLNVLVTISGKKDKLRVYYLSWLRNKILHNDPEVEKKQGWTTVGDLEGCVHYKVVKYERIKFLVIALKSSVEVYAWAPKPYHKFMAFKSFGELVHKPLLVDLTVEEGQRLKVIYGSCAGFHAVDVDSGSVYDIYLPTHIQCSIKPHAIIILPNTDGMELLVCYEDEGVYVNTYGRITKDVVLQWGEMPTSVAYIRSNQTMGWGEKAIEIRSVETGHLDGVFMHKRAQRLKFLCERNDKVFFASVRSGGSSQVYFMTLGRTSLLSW

Row | SMILES | inhibition at 1 µM [1] [%] | inhibition at 1 µM [2] [%] | inhibition at 1 µM [3] [%] | inhibition at 1 µM [4] [%] | inhibition at 1 µM [5] [%] | inhibition at 1 µM [6] [%] | inhibition at 1 µM [7] [%] | inhibition at 1 µM [8] [%] | inhibition at 1 µM [9] [%] | inhibition at 1 µM [10] [%] | inhibition at 1 µM [11] [%] | inhibition at 1 µM [12] [%]
1 | C=CC(=O)N1CCCC(c2c(F)cc(C(N)=O)c3[nH]c4c(c23)CCCCC4)C1 (single isomer, unassigned) [Compound 5-6] | -22.7 | -46.7 | 0.6 | 74.7 | -19.1 | 3.7 | -17.9 | 3.7 | -0.9 | -0.6 | -7.9 | 7.1
2 | C=CC(=O)N1CCC[C@@H](c2c(F)cc(C(N)=O)c3[nH]c4c(c23)CC2(CC4)CC2)C1 [Compound 6-2, (S)-5-(1-acryloylpiperidin-3-yl)-6-fluoro-1,2,4,9-tetrahydrospiro[carbazole-3,1′-cyclopropane]-8-carboxamide] | 2.9 | -26.2 | 18.3 | 59.1 | 13.4 | 1 | 11.7 | 22 | 28.8 | 21.7 | 31.3 | -31.3
3 | C=CC(=O)N1CCC[C@@H](c2c(F)cc(C(N)=O)c3[nH]c4c(c23)CCC4)C1 [Compound 10-2, (S)-8-(1-acryloylpiperidin-3-yl)-7-fluoro-1,2,3,4-tetrahydrocyclo-penta[b]indole-5-carboxamide] | -10.5 | -34.9 | 24.4 | 71 | 13.9 | -3.1 | 32.1 | 8.5 | 12.3 | 13.6 | 34.2 | -45.4
